Experimental data as given in PubChem BioAssay AID2060506 (Molecular Pharmacology Branch, DTP, NCI, 2025).
Values belong to the molecule of their own block, whether it stands above or below them.

Tested on: 598228-144-R-J1-PDC complex spheroid viability
Assay: Anticancer human tumor 598228-144-R-J1-PDC patient-derived serous endometrial adenocarcinoma cell line growth inhibition [GQUAD]
Details: for IC50: curve of first compound; for viability, T/C: stronger effect = lower value
How it was run: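 Tumor cells were grown as complex spheroids with HUVEC endothelial cells and mesenchymal stem cells as stroma. G-quadruplex stabilizers were combined with targeted agents over half-log dilutions from near the clinical Cmax, or from 10 microM.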

[1] = second compound 0.0316 µM, first compound 0.0316 µM
[2] = second compound 0.0316 µM, first compound 0.1 µM
[3] = second compound 0.0316 µM, first compound 0.316 µM
[4] = second compound 0.0316 µM, first compound 1 µM
[5] = second compound 0.0316 µM, first compound 3.16 µM
[6] = second compound 0.0316 µM, first compound 10 µM
[7] = second compound 0.1 µM, first compound 0.0316 µM
[8] = second compound 0.1 µM, first compound 0.1 µM
[9] = second compound 0.1 µM, first compound 0.316 µM
[10] = second compound 0.1 µM, first compound 1 µM
[11] = second compound 0.1 µM, first compound 3.16 µM
[12] = second compound 0.1 µM, first compound 10 µM
[13] = second compound 0.316 µM, first compound 0.0316 µM
[14] = second compound 0.316 µM, first compound 0.1 µM
[15] = second compound 0.316 µM, first compound 0.316 µM
[16] = second compound 0.316 µM, first compound 1 µM
[17] = second compound 0.316 µM, first compound 3.16 µM
[18] = second compound 0.316 µM, first compound 10 µM
[19] = second compound 1 µM, first compound 0.0316 µM
[20] = second compound 1 µM, first compound 0.1 µM
[21] = second compound 1 µM, first compound 0.316 µM
[22] = second compound 1 µM, first compound 1 µM
[23] = second compound 1 µM, first compound 3.16 µM
[24] = second compound 1 µM, first compound 10 µM
[25] = second compound 3.16 µM, first compound 0.0316 µM
[26] = second compound 3.16 µM, first compound 0.1 µM
[27] = second compound 3.16 µM, first compound 0.316 µM
[28] = second compound 3.16 µM, first compound 1 µM
[29] = second compound 3.16 µM, first compound 3.16 µM
[30] = second compound 3.16 µM, first compound 10 µM
[31] = second compound 10 µM, first compound 0.0316 µM
[32] = second compound 10 µM, first compound 0.1 µM
[33] = second compound 10 µM, first compound 0.316 µM
[34] = second compound 10 µM, first compound 1 µM
[35] = second compound 10 µM, first compound 3.16 µM
[36] = second compound 10 µM, first compound 10 µM
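Note: spheroids exposed to the agents for one week before reading.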
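Throughout, for viability, T/C: percent of vehicle DMSO control viability so 100% = untreated growth.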

- IC50 (second compound 0.0316 µM): 8.68 µM
- IC50 (second compound 0.1 µM): > 10 µM
- IC50 (second compound 0.316 µM): > 10 µM
- IC50 (second compound 1 µM): > 10 µM
- IC50 (second compound 3.16 µM): 3.43 µM
- IC50 (second compound 10 µM): 0.765 µM
Structure (SMILES): COc1cc(C2c3cc4c(cc3C(OC3OC5COC(C)OC5C(O)C3O)C3COC(=O)C23)OCO4)cc(OC)c1O (stereo not drawn) + Cc1cnc(CNC(=O)c2c(=O)c3ccc(N4CCCN(C)CC4)nc3n3c2sc2ccccc23)cn1
- viability, T/C [1]: 79.7%
- viability, T/C [2]: 85.8%
- viability, T/C [3]: 88.4%
- viability, T/C [4]: 58.6%
- viability, T/C [5]: 79.8%
- viability, T/C [6]: 46.1%
- viability, T/C [7]: 89.4%
- viability, T/C [8]: 60.1%
- viability, T/C [9]: 54.8%
- viability, T/C [10]: 66.4%
- viability, T/C [11]: 55.1%
- viability, T/C [12]: 44.4%
- viability, T/C [13]: 87.8%
- viability, T/C [14]: 62%
- viability, T/C [15]: 64.2%
- viability, T/C [16]: 72.1%
- viability, T/C [17]: 67%
- viability, T/C [18]: 47.8%
- viability, T/C [19]: 64.2%
- viability, T/C [20]: 69.9%
- viability, T/C [21]: 74.7%
- viability, T/C [22]: 72%
- viability, T/C [23]: 71.9%
- viability, T/C [24]: 46.9%
- viability, T/C [25]: 64.6%
- viability, T/C [26]: 70.7%
- viability, T/C [27]: 73.3%
- viability, T/C [28]: 61.7%
- viability, T/C [29]: 51.8%
- viability, T/C [30]: 35%
- viability, T/C [31]: 57.6%
- viability, T/C [32]: 45.2%
- viability, T/C [33]: 52.1%
- viability, T/C [34]: 47.5%
- viability, T/C [35]: 43.2%
- viability, T/C [36]: 9.83%

- IC50 (second compound 0.0316 µM): 0.0565 µM
- IC50 (second compound 0.1 µM): < 0.0316 µM
- IC50 (second compound 0.316 µM): 0.066 µM
- IC50 (second compound 1 µM): 0.0387 µM
- IC50 (second compound 3.16 µM): < 0.0316 µM
- IC50 (second compound 10 µM): < 0.0316 µM
Structure (SMILES): CC1COCCN1c1cc(-c2ccnn2C)c2ccnc(-c3ccn[nH]3)c2n1 (stereo not drawn) + Cc1cnc(CNC(=O)c2c(=O)c3ccc(N4CCCN(C)CC4)nc3n3c2sc2ccccc23)cn1
- viability, T/C [1]: 52%
- viability, T/C [2]: 48.3%
- viability, T/C [3]: 44.7%
- viability, T/C [4]: 29.7%
- viability, T/C [5]: 33.5%
- viability, T/C [6]: 30.9%
- viability, T/C [7]: 47.9%
- viability, T/C [8]: 38.4%
- viability, T/C [9]: 43%
- viability, T/C [10]: 33.2%
- viability, T/C [11]: 38.3%
- viability, T/C [12]: 25.8%
- viability, T/C [13]: 58.2%
- viability, T/C [14]: 40.6%
- viability, T/C [15]: 42.9%
- viability, T/C [16]: 32.5%
- viability, T/C [17]: 39.1%
- viability, T/C [18]: 21.3%
- viability, T/C [19]: 52.3%
- viability, T/C [20]: 42%
- viability, T/C [21]: 43.2%
- viability, T/C [22]: 33%
- viability, T/C [23]: 28.2%
- viability, T/C [24]: 22.2%
- viability, T/C [25]: 45.8%
- viability, T/C [26]: 26.1%
- viability, T/C [27]: 33.6%
- viability, T/C [28]: 23.4%
- viability, T/C [29]: 20.7%
- viability, T/C [30]: 4.32%
- viability, T/C [31]: 23.5%
- viability, T/C [32]: 17.4%
- viability, T/C [33]: 8.76%
- viability, T/C [34]: 6.24%
- viability, T/C [35]: 0.97%
- viability, T/C [36]: 8.07%

Structure (SMILES): C=CC(=O)N1CCN(c2nc(=O)n(-c3c(C)ccnc3C(C)C)c3nc(-c4c(O)cccc4F)c(F)cc23)C(C)C1 (stereo not drawn) + Cc1[nH]c2ccc(F)cc2c1-c1nc2c3cccnc3c3ncccc3c2[nH]1
- IC50 (second compound 0.0316 µM): > 10 µM
- IC50 (second compound 0.1 µM): > 10 µM
- IC50 (second compound 0.316 µM): > 10 µM
- IC50 (second compound 1 µM): > 10 µM
- IC50 (second compound 3.16 µM): < 0.0316 µM
- IC50 (second compound 10 µM): > 10 µM
- viability, T/C [1]: 119%
- viability, T/C [2]: 95%
- viability, T/C [3]: 105%
- viability, T/C [4]: 132%
- viability, T/C [5]: 136%
- viability, T/C [6]: 123%
- viability, T/C [7]: 88.4%
- viability, T/C [8]: 110%
- viability, T/C [9]: 102%
- viability, T/C [10]: 129%
- viability, T/C [11]: 136%
- viability, T/C [12]: 151%
- viability, T/C [13]: 75.9%
- viability, T/C [14]: 94.8%
- viability, T/C [15]: 99.5%
- viability, T/C [16]: 108%
- viability, T/C [17]: 159%
- viability, T/C [18]: 108%
- viability, T/C [19]: 58.6%
- viability, T/C [20]: 62.9%
- viability, T/C [21]: 63.7%
- viability, T/C [22]: 75.6%
- viability, T/C [23]: 89.3%
- viability, T/C [24]: 101%
- viability, T/C [25]: 36.1%
- viability, T/C [26]: 37.2%
- viability, T/C [27]: 55.9%
- viability, T/C [28]: 57.7%
- viability, T/C [29]: 59.5%
- viability, T/C [30]: 70%
- viability, T/C [31]: 57.1%
- viability, T/C [32]: 75.6%
- viability, T/C [33]: 63.8%
- viability, T/C [34]: 69.1%
- viability, T/C [35]: 80.9%
- viability, T/C [36]: 103%

Structure (SMILES): COc1cc(C2c3cc4c(cc3C(OC3OC5COC(C)OC5C(O)C3O)C3COC(=O)C23)OCO4)cc(OC)c1O (stereo not drawn) + CN(C)c1ccc(Nc2c3ccc(NC(=O)CCN4CCCC4)cc3nc3cc(NC(=O)CCN4CCCC4)ccc23)cc1
- IC50 (second compound 0.0316 µM): 8.17 µM
- IC50 (second compound 0.1 µM): 5.14 µM
- IC50 (second compound 0.316 µM): 5.39 µM
- IC50 (second compound 1 µM): 0.898 µM
- IC50 (second compound 3.16 µM): 5.14 µM
- IC50 (second compound 10 µM): 0.471 µM
- viability, T/C [1]: 114%
- viability, T/C [2]: 105%
- viability, T/C [3]: 75.5%
- viability, T/C [4]: 65.5%
- viability, T/C [5]: 71.5%
- viability, T/C [6]: 42.1%
- viability, T/C [7]: 102%
- viability, T/C [8]: 84.2%
- viability, T/C [9]: 78.6%
- viability, T/C [10]: 61.3%
- viability, T/C [11]: 61.5%
- viability, T/C [12]: 40.3%
- viability, T/C [13]: 103%
- viability, T/C [14]: 95%
- viability, T/C [15]: 70.8%
- viability, T/C [16]: 61.6%
- viability, T/C [17]: 65.4%
- viability, T/C [18]: 39.6%
- viability, T/C [19]: 93.6%
- viability, T/C [20]: 114%
- viability, T/C [21]: 71.3%
- viability, T/C [22]: 55.9%
- viability, T/C [23]: 54.9%
- viability, T/C [24]: 32.5%
- viability, T/C [25]: 95%
- viability, T/C [26]: 75.6%
- viability, T/C [27]: 80%
- viability, T/C [28]: 56.4%
- viability, T/C [29]: 70.3%
- viability, T/C [30]: 35.7%
- viability, T/C [31]: 92.9%
- viability, T/C [32]: 71.8%
- viability, T/C [33]: 53%
- viability, T/C [34]: 40.7%
- viability, T/C [35]: 60.3%
- viability, T/C [36]: 34.9%
